Laboratory results taken from paper PMC4018403, “Transient Receptor Potential Ankyrin 1 Receptor Activation In Vitro and In Vivo by Pro-tussive Agents: GRC 17536 as a Promising Anti-Tussive Therapeutic” (PLoS ONE, 2014).

Columns and labels:
TRPA1 [1] = target: T1, TRPA1 (Homo sapiens, UniProt O75762); test: Citric acid-induced Ca+2 influx in CCD19-Lu cells; assay type: cell-based; design: A549 cells have been reported to express endogenous TRPA1; host or cells: A549; conditions: up to 10 µM antagonist
Method: (§1) Human lung fibroblast cells, CCD19-Lu (ATCC CCL-210) were obtained from American Type Culture Collection (ATCC; Rockville, MD, USA) and cultured in MEM supplemented with 10% FBS. Human pulmonary alveolar epithelial cell line A549 (ATCC CCL-185) was also obtained from ATCC and maintained in DMEM F-12 supplemented with 10% FBS. Both the cell types were cultured at 37°C in humidified air containing 5% CO2. Chinese hamster ovary (CHO) cells stably expressing human TRPA1 (hTRPA1/CHO), TRPV1 (hTRPV1/CHO), TRPV3 (hTRPV3/CHO), TRPV4 (hTRPV4/CHO and TRPM8 (hTRPM8/CHO were generated in-house and maintained in DMEM F-12 supplemented with 10% FBS and G418.
(§2) Fluorimetric and radiometric Ca^+2 influx assay was performed as described earlier. GRC 17536, GRC 17770, compound 7 or GRC 6211 was added to the cells 15 minutes prior to addition of agonist. Citric acid stock solution (1 M) was prepared in dH2O. Subsequent dilutions were made in Ca^+2, Mg^+2 free PBS (pH 7.3). No significant change in pH was observed upto 10 mM citric acid. At 30 mM concentration of citric acid, the pH of the solution dropped to 5.5. TLR ligands - LPS (10 µg/ml, TLR4), loxoribine (10 µM, TLR7) and ssRNA40 (1 µg/ml, TLR8) were dissolved in media and added to the cells for 16–18 hours. TRP selectivity of GRC 17536 and compound 7 was performed for TRPV1, TRPV3, TRPV4 and TRPM8 using Capsaicin (1 µM), 2-APB (1 mM), 4α-PDD (30 µM) and Icilin (250 nM) respectively, as agonist.

TRPA1 [2] = target: T1, TRPA1; test: Citric acid-induced Ca+2 influx in A549 cells; assay type: cell-based; design: A549 cells have been reported to express endogenous TRPA1; host or cells: A549; conditions: up to 10 µM antagonist
Method: as §1, §2

TRPA1 mRNA = test: Real-time RT-PCR of TRPA1 mRNA in hTRPA1/CHO cells; assay type: cell-based, human; conditions: pre-incubation with TLR ligand
Method: Total RNA was extracted from hTRPA1/CHO cells using TRI reagent (Sigma, St. Louise, MO, USA). 3 µg of RNA was reverse transcribed using iScript select cDNA synthesis kit (Biorad Hercules, CA, USA) according to the manufacturer's instructions to produce single-stranded cDNA. RT-PCR was performed with an real-time thermal cycler Eppendorf Mastercycler Ep (Eppendorf AG, Hamburg, Germany) using iTaq SYBR Green Supermix with ROX kit (Biorad Hercules, CA, USA) with human TRPA1 specific primers: 5′-[…]-3′(sense primer) and 5′-CTTTTATGTCTACTTG GGCACCTT-3′(antisense primer). RT-PCR reaction was carried out for 40 cycles at 94°C for 30 s, 60°C for 15 s and 60°C for 60 s. Data was interpreted using 2^(-ΔΔCT) Livak method of analysis.

TRPA1 [3] = target: T1, TRPA1; test: TLR ligand-enhanced 45Ca+2 uptake in A549 cells; assay type: cell-based; design: A549 cells have been reported to express endogenous TRPA1; host or cells: A549; conditions: A549 cells; TLR ligand pre-treatment 16-18 hours
Method: as §1, §2

TRPA1 [4] = target: T1, TRPA1; test: TLR ligand-enhanced 45Ca+2 uptake in hTRPA1/CHO cells; assay type: cell-based; design: expressed in transfected cells
Method: as §1, §2

T1 sequence (O75762 whole entry): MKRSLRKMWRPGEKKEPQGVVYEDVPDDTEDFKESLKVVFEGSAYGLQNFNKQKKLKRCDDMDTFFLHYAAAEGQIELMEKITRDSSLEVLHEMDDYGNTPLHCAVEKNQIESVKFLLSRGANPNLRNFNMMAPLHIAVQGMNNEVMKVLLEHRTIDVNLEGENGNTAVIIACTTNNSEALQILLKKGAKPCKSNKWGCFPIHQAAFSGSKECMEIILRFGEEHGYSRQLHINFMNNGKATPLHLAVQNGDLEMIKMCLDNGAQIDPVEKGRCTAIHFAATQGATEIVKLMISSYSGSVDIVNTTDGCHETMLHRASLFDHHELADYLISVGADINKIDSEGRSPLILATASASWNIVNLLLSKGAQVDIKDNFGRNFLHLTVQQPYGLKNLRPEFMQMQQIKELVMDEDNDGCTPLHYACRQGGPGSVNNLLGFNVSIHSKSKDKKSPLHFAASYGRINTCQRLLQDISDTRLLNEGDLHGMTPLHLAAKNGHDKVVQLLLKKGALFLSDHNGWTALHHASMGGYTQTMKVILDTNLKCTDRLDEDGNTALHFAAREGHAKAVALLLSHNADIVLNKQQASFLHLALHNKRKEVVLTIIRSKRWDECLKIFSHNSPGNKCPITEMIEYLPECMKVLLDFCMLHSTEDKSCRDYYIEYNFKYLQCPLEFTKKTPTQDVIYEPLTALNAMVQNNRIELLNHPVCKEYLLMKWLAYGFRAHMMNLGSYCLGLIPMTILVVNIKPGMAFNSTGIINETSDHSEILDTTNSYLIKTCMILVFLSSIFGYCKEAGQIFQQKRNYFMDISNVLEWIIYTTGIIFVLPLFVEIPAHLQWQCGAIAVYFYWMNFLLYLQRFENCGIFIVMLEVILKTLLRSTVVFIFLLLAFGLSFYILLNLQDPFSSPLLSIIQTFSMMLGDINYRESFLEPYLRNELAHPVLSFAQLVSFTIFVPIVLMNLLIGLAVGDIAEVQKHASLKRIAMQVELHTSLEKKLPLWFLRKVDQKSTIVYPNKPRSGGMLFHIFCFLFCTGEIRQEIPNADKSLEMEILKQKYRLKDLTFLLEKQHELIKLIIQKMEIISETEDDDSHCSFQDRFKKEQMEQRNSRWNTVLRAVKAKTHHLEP

| Inhibition of citric acid induced increase in Ca+2 (TRPA1 [1]) | Inhibition of citric acid induced increase in Ca+2 (TRPA1 [2]) | Enhancement of AITC mediated 45Ca+2 uptake (TRPA1 [3]) | Increase in 45Ca+2 uptake over AITC alone (TRPA1 [4]; hTRPA1/CHO, pre-treatment Loxoribine 10 µM or ssRNA40 1 µg/ml, 16-18 hours) | Increase in 45Ca+2 uptake by TLR ligand alone (TRPA1 [4]; ligand alone, no TRPA1 agonist, 'these cells', data not shown) | SMILES | TRPA1 mRNA levels compared to control (TRPA1 mRNA) |
| --- | --- | --- | --- | --- | --- | --- |
| failed to inhibit | failed to inhibit |  |  |  | O=C(Nc1cccc2cnccc12)N[C@@H]1CC2(CCC2)Oc2ccc(F)cc21 [GRC 6211] |  |
|  |  | 30% | 20% | did not show any increase | C=CCn1c(=O)n([C@@H]2O[C@H](CO)[C@@H](O)[C@H]2O)c2nc(N)[nH]c(=O)c21 [Loxoribine, reference compound] | enhance TRPA1 expression |
